This note sets out measurements from patent US20240279205A1, “NOVEL BENZIMIDAZOLE DERIVATIVE” (Carna Biosciences, Inc., priority 2020, published 2024).

Where a name gives a salt, the structure may show the parent alone.

The target of the first assay is T1, human STING (hSTING) (Homo sapiens, UniProt Q86WV6).
T1 construct: host or cells: HEK-Blue ISG cells (HEK293-derived SEAP reporter line)
T1 sequence (Q86WV6 whole entry H232R): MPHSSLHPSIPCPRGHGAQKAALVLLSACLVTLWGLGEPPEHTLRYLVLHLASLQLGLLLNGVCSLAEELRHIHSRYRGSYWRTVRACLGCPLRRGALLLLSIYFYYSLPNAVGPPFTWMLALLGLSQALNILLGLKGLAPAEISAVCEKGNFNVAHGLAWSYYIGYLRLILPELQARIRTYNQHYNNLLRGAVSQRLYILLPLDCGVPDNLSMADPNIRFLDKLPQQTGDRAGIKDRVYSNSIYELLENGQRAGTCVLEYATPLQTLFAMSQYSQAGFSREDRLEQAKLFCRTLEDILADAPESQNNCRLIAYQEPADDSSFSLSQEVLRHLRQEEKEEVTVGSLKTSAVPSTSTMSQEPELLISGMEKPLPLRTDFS
The assay is described as follows: Inhibition test of intracellular human STING (hSTING) pathway using SEAP reporter cells (HEK-Blue ISG), stimulation with Compound 3. The class given is cell-based. Also noted: hSTING inhibitory activity: scale not given here. As to conditions: Compound 3 10 nM stimulation, 21 hours. As for the experimental part:
Inhibition test of intracellular human STING (hSTING) pathway using reporter cells
Since STING activates the transcription factor IRF3 upon ligand stimulation, the activity of STING can be evaluated by a reporter assay using a secretory alkaline phosphatase (SEAP reporter) integrated downstream of an IRF-inducible promoter.
That is, the hSTING inhibitory activity of the test compound was evaluated using HEK-Blue™MISG cells (manufactured by Invivogen, #hkb-isg-1) incorporating a SEAP reporter. Activation of hSTING was performed by stimulation with the small molecule ligand Compound 3 as described in the literature (Ramanjulu, J. M., et al., Nature. 2018, 564 (7736), 439-443). HEK-Blue™MISG cells were seeded in a 96-well plate and cultured overnight at 37° C. in a 5% CO2 incubator. To each well of this cell culture plate, a test compound solution adjusted to a final concentration of 0.1 to 10 µM of the test compound was added, cultured for 1 hour in a CO2 incubator, and then Compound 3 (final concentration 10 nM) was added and further cultured in a CO2 incubator for 21 hours. After collecting the culture supernatant of each well, the reporter activity was measured by color development reaction with alkaline phosphatase.
The reporter activity of the test compound non-addition and Compound 3 addition group was set to 100%, and the reporter activity of the test compound non-addition and Compound 3 non-addition group was set to 0%. The IC50 value was determined by regression analysis of the inhibitory rate determined from the reporter activity at each compound concentration and the test compound concentration (logarithm).
Regarding `C[C@@H](O)Cn1c(Nc2c[nH]c3ccc(Cl)cc23)nc2cc(C(F)(F)F)ccc21` [Embodiment 239, (R)-1-{2-[(5-chloro-1H-indol-3-yl)amino]-5-(trifluoromethyl)-1H-benzo[d]imidazol-1-yl}propan-2-oar], the hSTING inhibitory activity result is on record as “* *”.

On to `Cn1c(Nc2c[nH]c3ccc(Cl)cc23)nc2cc(C3CCOCC3)ccc21` [Embodiment 197, N-(5-Chloro-1H-indol-3-yl)-1-methyl-5-(tetrahydro-2H-pyran-4-yl)-1H-benzo[d]imidazole-2-amine formate], for which the hSTING inhibitory activity entry was “* *”.

Take `Clc1ccc2[nH]cc(Nc3nc4cc(-c5ccncc5)ccc4[nH]3)c2n1` [Embodiment 96, N-(5-Chloro-1H-pyrrolo[3,2-b]pyridin-3-yl)-5-(pyridin-4-yl)-1H-benzo[d]imidazol-2-amine]: the hSTING inhibitory activity entry is “* *”.

As to `C[C@H](O)Cn1c(Nc2c[nH]c3ccc(Cl)cc23)nc2cc(C(F)(F)F)ccc21` [Embodiment 243, (S)-1-{2-[(5-chloro-1H-indol-3-yl)amino]-5-(trifluoromethyl)-1H-benzo[d]imidazol-1-yl}propan-2-oar], the hSTING inhibitory activity result is “* *”.

The same assay, now with this note: Compound 3 10 nM stimulation, 21 hours, read-out: hSTING inhibitory activity.
As to `Cn1c(Nc2c[nH]c3ccc(Cl)nc23)nc2ccc(Oc3ccc(C#N)cc3)cc21` [Embodiment 174, 4-({2-[(5-chloro-1H-pyrrolo[3,2-b]pyridin-3-yl)amino]-1-methyl-1H-benzo[d]imidazol-6-yl} Oxy)benzonitrile], the IC50 is at least 10 µM.

Turning to `COCCn1c(Nc2c[nH]c3ccc(Cl)nc23)nc2cc(F)cc(F)c21` [Embodiment 205, N-(5-chloro-1H-pyrrolo[3,2-b]pyridin-3-yl)-5,7-difluoro-1-(2-methoxyethyl)-1H-benzo[d]imidazole-2-amine], the IC50 is at least 10 µM.

`Cn1c(Nc2c[nH]c3ccc(Cl)nc23)nc2ccc(OC(F)(F)F)cc21` [Embodiment 211, N-(5-Chloro-1H-pyrrolo[3,2-b]pyridin-3-yl)-1-methyl-6-(trifluoromethoxy)-1H-benzo[d] imidazol-2-amine]: the IC50 is at least 10 µM.

Take `COCCn1c(Nc2c[nH]c3ccc(Cl)nc23)nc2c(F)c(F)ccc21` [Embodiment 200, N-(5-chloro-1H-pyrrolo[3,2-b]pyridin-3-yl)-4,5-difluoro-1-(2-methoxyethyl)-1H-benzo[d] imidazole-2-amine]: the IC50 is at least 10 µM.

`Cn1c(Nc2c[nH]c3ccc(Cl)nc23)nc2ccc(C3CCOCC3)cc21` [Embodiment 154, N-(5-chloro-1H-pyrrolo[3,2-b]pyridin-3-yl)-1-methyl-6-(tetrahydro-2H-pyran-4-yl)-1H-benzo[d] imidazol-2-amine]: the IC50 is at least 10 µM.

Turning to `COCCn1c(Nc2c[nH]c3ccc(Cl)nc23)nc2cc(Cl)c(Cl)cc21` [Embodiment 110, 5,6-dichloro-N-(5-chloro-1H-pyrrolo[3,2-b]pyridin-3-yl)-1-(2-methoxyethyl)-1H-benzo[d] imidazole-2-amine], the IC50 fell in the range of 1 to 10 µM.

With `COCCn1c(Nc2c[nH]c3ccc(Cl)nc23)nc2cccc(C(F)(F)F)c21` [Embodiment 180, N-(5-chloro-1H-pyrrolo[3,2-b]pyridin-3-yl)-1-(2-methoxyethyl)-7-(trifluoromethyl)-1H-benzo[d]imidazol-2-amine], the IC50 was at least 10 µM.

Take `COCCn1c(Nc2c[nH]c3ccc(Cl)nc23)nc2cc(Oc3cccnc3)ccc21` [Embodiment 206, N-(5-chloro-1H-pyrrolo[3,2-b]pyridin-3-yl)-1-(2-methylxhetyl)-5-(pyridin-3-yloxy)-1H-benzo[d] imidazol-2-amine]: the IC50 is at least 10 µM.

For the compound `COCCn1c(Nc2c[nH]c3ccc(Cl)nc23)nc2ccc(-c3ccccc3)cc21` [Embodiment 182], the IC50 is at least 10 µM.

With `CN(C)C(=O)Cn1c(Nc2c[nH]c3ccc(Cl)cc23)nc2cc(C(F)(F)F)ccc21` [Embodiment 229, 2-{2-[(5-chloro-1H-indol-3-yl)amino]-5-(trifluoromethyl)-1H-benzo [d]imidazol-1-yl}-N,N-dimethyl Acetamide], the IC50 was at least 10 µM.
